Data as given in patent US20260263552A1, “PHARMACEUTICAL COMPOSITIONS FOR IMPROVING ORAL BIOAVAILABILITY” (priority 2023, published 2026).

Tests used:
[1] = Oral absorption / pharmacokinetics of Compound (I) formulations in cynomolgus monkeys; type: in vivo; settings: cyno monkeys
Procedure: An aqueous suspension of […] was prepared at 10% solid content. […] Six enteric coated tablets were encapsulated in a size #00 hard gelatin capsule for the cyno PK study. Each cyno monkey was dosed with 2 capsules (12 enteric coated tablets). […] The mean exposure is shown in FIG. 1 with error bars showing the standard deviation.

[2] = Dog pK study (Example 5E), effect of sodium decanoate amount and number of tablets, 100 mg dose; design: species or system dogs; settings: in vivo, iv, 10 mg
Procedure: Blood samples were withdrawn over a period of 72 hours. […] Error bars describe standard deviation. […] Decreasing the amount of sodium decanoate decreased PK exposure at 330 mg of sodium decanoate. […] Table 12 summarizes all of the PK data for all the formulations tested in Example 5.

[3] = Dog pK study (Example 4), 20 mg dose; design: species or system dogs; settings: in vivo, iv, 10 mg
[4] = 0.1 mg/kg IV (0.5 mg), reference

- AUC0-24 h (nM · h) Mean ([1]; 0.1 mg/kg IV (0.5 mg)): 47.61351 µM·h
- AUCinf (nM · h) Mean ([1]; 0.1 mg/kg IV (0.5 mg)): 51.96595 µM·h
- Cmax ([1]; 0.1 mg/kg IV (0.5 mg)): 798 nM
- BA (%) Mean [1, 4]: 100.00%
- BA (%) using AUCInf Mean [1, 4]: 100.00%
- plasma concentration of Compound (I) over time ([1]; oral, 12 mg, formulated as in Example 1, 72 hours): good plasma concentration
- AUCinf (ng · h/mL) Mean [2]: 1198.53803 µg·h/mL
- Cmax (ng/mL) Mean [2]: 25466.29 ng/mL
- AUCinf (ng · h/mL) Mean [3]: 1198.53803 µg·h/mL
- Cmax (ng/mL) Mean [3]: 25466.29 ng/mL
SMILES: CCCC[C@H]1C(=O)N(C)[C@@H](CCCC)C(=O)N[C@@H](CC(C)C)C(=O)N[C@H](C(=O)NCC(=O)N[C@@H](Cc2cn(CCOCCOCCCOCCCOCCOCCOCCOCCOCCOCCOCCOCCNC(=O)CC[C@H](NC(=O)CCCCCCCCCCCCCCCCC(=O)O)C(=O)O)nn2)C(=O)O)CSCC(=O)N[C@@H](Cc2ccc(O)cc2)C(=O)N(C)[C@@H](C)C(=O)N[C@@H](CC(N)=O)C(=O)N2CCC[C@H]2C(=O)N[C@@H](CN)C(=O)N[C@@H](CC(C)C)C(=O)N2C[C@H](O)C[C@H]2C(=O)N[C@@H](Cc2c[nH]c3ccccc23)C(=O)N[C@@H](CCN)C(=O)N[C@@H](Cc2cn(CC(=O)O)c3ccccc23)C(=O)N1C [Compound (I)]
